Laboratory results taken from patent US6806276B2, “2-oxoquinoline compounds and pharmaceutical uses thereof” (Japan Tobacco Inc., priority 1999, dated 2004).
Like-named read-outs stand apart in the source and are kept apart here.

What was measured:
[1] = molecular target: T1, human peripheral type cannabinoid receptor (hCB2) (Homo sapiens, UniProt P34972); assay: Binding assay (in vitro), [3H]Win55212-2 displacement, membrane fractions of human CB2-CHO; conditions: for Ki: hCB2 expressed in CHO cells, [3H]Win55212-2 2 nM, 30° C. 90 minutes; for C/S (Ki central type receptors / Ki peripheral type receptors): indicator of selectivity for peripheral type receptors
T1 construct: expressed in transfected cells; host or cells: CHO cells
T1 sequence (P34972 whole entry): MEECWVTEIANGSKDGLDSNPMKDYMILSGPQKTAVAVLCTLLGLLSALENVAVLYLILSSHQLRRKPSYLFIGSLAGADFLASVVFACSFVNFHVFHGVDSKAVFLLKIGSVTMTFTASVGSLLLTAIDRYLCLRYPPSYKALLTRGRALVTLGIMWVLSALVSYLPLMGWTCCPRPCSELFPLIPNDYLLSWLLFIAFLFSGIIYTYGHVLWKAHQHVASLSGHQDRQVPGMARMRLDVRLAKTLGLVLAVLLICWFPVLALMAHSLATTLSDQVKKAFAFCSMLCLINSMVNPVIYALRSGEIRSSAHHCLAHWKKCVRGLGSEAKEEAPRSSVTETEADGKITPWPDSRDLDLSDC
Experimental: (§1) Membrane fractions of human central type cannabinoid receptor (human CB1-CHO, hereinafter called hCB1) and human peripheral type cannabinoid receptor (human CB2-CHO, hereinafter called hCB2) expressed in CHO cells were used as samples. The reference material (hCB1: 20 μg/ml, hCB2: 5 μg/ml), labeled ligand ([^3H]Win55212-2, 2 nM) and unlabeled ligand Win55212-2 or test compound were added to a 24-well round bottom plate, and the plate was incubated at 30° C. for 90 minutes. 50 mM Tris-HB55 containing 0.2% BSA was used as an assay buffer. After incubation, the mixture was filtered (Packard, Unifilter 24GF/B) and dried, and then a scintillation solution (Packard, Microsint-20) was added thereto to determine the radioactivity of the sample (Packard, Top count A9912V). Nonspecific binding was determined by the addition of excessive amount of Win55212-2 (10 μM), and specific binding was calculated by subtracting the nonspecific binding from total binding determined by the addition of the labeled ligand only. The test compound was dissolved in DMSO to make the final concentration in DMSO to be 0.1%. IC50 value was determined from the proportion of the bound test compound in the specific binding, and K1 value of the test compound was calculated from the ICso value and Kd value of [^3H]Win55212-2. K1 value for the central type receptors/K1 value for peripheral type receptors (C/S) was also calculated as an indicator of the selectivity of the test compound for peripheral type receptors.

[2] = tested on: carrageenin-induced paw edema; assay: Carrageenin-induced paw edema model (in vivo); set-up: species or system C57BL/6J mice; conditions: mice, oral in olive oil 1 hour before carrageenin, paw volume 3 hours later
Experimental: [2] Carrageenin-induced paw edema model (in vivo)
C57BL/6J mice (6 to 8 weeks of age) were used. […] After one hour of the administration, 50 μl of 1% solution of carrageenin in normal saline was administered intradermally at foot pad of the right hind paw. Three hours later, the volume of the right hind paw was measured and compared with the initial volume.

[3] = molecular target: T2, human central type cannabinoid receptor (hCB1) (Homo sapiens, UniProt P21554); assay: Binding assay (in vitro), [3H]Win55212-2 displacement, membrane fractions of human CB1-CHO; conditions: hCB1 expressed in CHO cells, [3H]Win55212-2 2 nM, 30° C. 90 minutes
T2 construct: expressed in transfected cells; host or cells: CHO cells
T2 sequence (P21554 whole entry): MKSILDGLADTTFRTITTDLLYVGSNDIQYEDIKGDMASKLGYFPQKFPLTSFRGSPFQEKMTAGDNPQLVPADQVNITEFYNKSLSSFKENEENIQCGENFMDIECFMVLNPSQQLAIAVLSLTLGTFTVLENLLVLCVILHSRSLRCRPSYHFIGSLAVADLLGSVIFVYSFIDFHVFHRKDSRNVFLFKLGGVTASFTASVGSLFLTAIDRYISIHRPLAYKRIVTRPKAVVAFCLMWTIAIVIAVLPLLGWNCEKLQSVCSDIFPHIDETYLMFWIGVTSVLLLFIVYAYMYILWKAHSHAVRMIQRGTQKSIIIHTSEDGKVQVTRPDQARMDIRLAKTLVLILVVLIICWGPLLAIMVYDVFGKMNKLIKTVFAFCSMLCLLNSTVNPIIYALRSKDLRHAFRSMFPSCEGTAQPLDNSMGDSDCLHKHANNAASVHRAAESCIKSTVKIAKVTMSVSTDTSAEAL
Experimental: as §1

[4] = Ki value Peripheral type receptor (S)
[5] = read-out: Ki value Central type receptor (C)
[6] = read-out: Ki value Peripheral type receptor (S)
[7] = Ki value Central type receptor (C)

`CCCOc1c(OC)ccc2cc(C(=O)NCCc3ccccc3)c(=O)[nH]c12` [Example 3-30, 7-methoxy-2-oxo-8-propoxy-1,2-dihydroquinoline-3-carboxylic acid (2-phenylethyl)amide] was tested, and the Ki [1, 4] was 0.09 nM, the “C/S (Ki central type receptors / Ki peripheral type receptors)” value [1] was 1862 and the ED60 [2] was 0.49 mg/kg; p.o.
With `CCCCCOc1c(OC)ccc2cc(C(=O)NCCN3CCOCC3)c(=O)[nH]c12` [Example 3-11, 7-methoxy-2-oxo-8-pentyloxy-1,2-dihydroquinoline-3-carboxylic acid (2-morpholinoethyl)amide] the ED50 [2] was 0.40 mg/kg; p.o.
With `CCCCCOc1c(OC)ccc2cc(C(=O)NCc3ccncc3)c(=O)[nH]c12` [Example 3-9, 7-methoxy-2-oxo-8-pentyloxy-1,2-dihydroquinoline-3-carboxylic acid (4-pyridyl methyl)amide] the ED50 [2] was 0.58 mg/kg; p.o.
`CCCCCOc1c(OC)ccc2cc(C(=O)NCCc3ccccc3)c(=O)[nH]c12` [Example 3-23, 7-methoxy-2-oxo-8-pentyloxy-1,2-dihydroquinoline-3-carboxylic acid (2-phenylethyl)amide] was tested, and the Ki [3, 5] was 39 nM, the Ki [1, 6] was 0.2 nM and the “C/S (Ki central type receptors / Ki peripheral type receptors)” value [1] was 194.
In the case of `CCCCCOc1cc2cc(C(=O)OC)c(=O)[nH]c2cc1OC` [Example 1-2, 7-methoxy-2-oxo-6-pentyloxy-1,2-dihydroquinoline-3-carboxylic acid methyl ester], the Ki [3, 5] is reported as 3670 nM, the Ki [1, 4] is reported as 0.014 nM and the “C/S (Ki central type receptors / Ki peripheral type receptors)” value [1] is reported as 262202.
For `CCCCCOc1c(OC)ccc2cc(C(=O)NCCc3ccccc3F)c(=O)[nH]c12` [Example 3-19, 7-methoxy-2-oxo-8-pentyloxy-1,2-dihydroquinoline-3-carboxylic acid [2-(2-fluorophenyl)ethyl]amide], the Ki [3, 7] was 49 nM, the Ki [1, 4] was 0.18 nM and the “C/S (Ki central type receptors / Ki peripheral type receptors)” value [1] was 272.
With `CCCCOc1c(OC)ccc2cc(COC(=O)Nc3ccc(F)cc3)c(=O)[nH]c12` [Example 6-1, N-(4-fluorophenyl)carbamic acid (8-butoxy-7-methoxy-2-oxo-1,2-dihydroquinoline-3-yl)methyl ester] the Ki [3, 5] was 703 nM, the Ki [1, 6] was 0.045 nM and the “C/S (Ki central type receptors / Ki peripheral type receptors)” value [1] was 15612.
In the case of `CCCCCOc1c(OC)ccc2cc(C(=O)NCCc3ccc(O)cc3)c(=O)n(C)c12` [Example 3-41, 1-methyl-7-methoxy-2-oxo-8-pentyloxy-1,2-dihydroquinoline-3-carboxylic acid [2-(4-hydroxyphenyl)ethyl]amide], the Ki [3, 7] is reported as 62 nM, the Ki [1, 4] is reported as 0.35 nM and the “C/S (Ki central type receptors / Ki peripheral type receptors)” value [1] is reported as 176.
For `CCCCCOc1cc2cc(C(=O)OC)c(=O)n(C)c2cc1OC` [Example 1-4, 1-methyl-7-methoxy-2-oxo-6-pentyloxy-1,2-dihydroquinoline-3-carboxylic acid methyl ester], the Ki [3, 5] was 1630 nM, the Ki [1, 4] was 4.49 nM and the “C/S (Ki central type receptors / Ki peripheral type receptors)” value [1] was 362.
In the case of `CCCCOc1c(OC)ccc2cc(C(=O)NCCc3ccncc3)c(=O)[nH]c12` [Example 3-16, 8-butoxy-7-methoxy-2-oxo-1,2-dihydroquinoline-3-carboxylic acid (2-pyridine-4-ylethyl)amide], the Ki [3, 5] is reported as 208 nM, the Ki [1, 4] is reported as 0.01 nM and the “C/S (Ki central type receptors / Ki peripheral type receptors)” value [1] is reported as 20805.
With `CCCCCOc1cc2cc(C(=O)NCCN3CCOCC3)c(=O)n(C)c2cc1OC` [Example 3-44, 1-methyl-7-methoxy-2-oxo-6-pentyloxy-1,2-dihydroquinoline-3-carboxylic acid (2-morpholinoethyl)amide] the Ki [3, 5] was 193 nM, the Ki [1, 4] was 0.18 nM and the “C/S (Ki central type receptors / Ki peripheral type receptors)” value [1] was 1075.
For `COc1ccc2cc(C(=O)NCCc3ccc(F)cc3)c(=O)[nH]c2c1OC` [Example 3-31, 7,8-dimethoxy-2-oxo-1,2-dihydroquinoline-3-carboxylic acid [2-(4-fluorophenyl)ethyl]amide], the Ki [3, 5] was 159 nM, the Ki [1, 6] was 0.16 nM and the “C/S (Ki central type receptors / Ki peripheral type receptors)” value [1] was 995.
